Test system: 301 cancer cell lines from different tumor types (OncoPanel; HD Biosciences)
Experiment: 2D cell viability inhibition assay (CellTiter-Glo) in cancer cell line panel
Assay type: cell-based
Conditions: Homo sapiens
Procedure: In a larger screening study, compound 1 was evaluated across a broad cancer cell line panel (OncoPanel; HD Biosciences) composed of 301 cancer cell lines from different tumor types.
2D cell viability inhibition assays were performed in multiwell plates seeded with cells from the panel. After seeding, the plates were cultured overnight in a humidified incubator at 37° C. to promote adherence. Assays were initiated in individual wells by adding either DMSO as a vehicle control, growth media as a blank, or serially diluted compound 1 (10 μM to 0.0005 μM with 1:3 serial dilution). Cultures were incubated for 168 hours after which the number of viable cells in each test well was assessed using the CellTiter-Glo® Luminescent Cell Viability Assay. Luminescence readouts were performed using an EnVision® Multilabel Reader and the compound 1 readouts were normalized to the DMSO control readouts, expressed as a percent of the control. Outliers were flagged out by visual inspection. Percent of control was plotted against the corresponding compound 1 concentration and the absolute IC50 value was determined using four-parameter logistic non-linear regression as the concentration where inhibition was 50% of the control. For maximum inhibition <50%, the absolute IC50 was reported as >10. In addition to EC50 and IC50, AUC was determined and was normalized to the area corresponding to theoretical no-inhibition (the rectangular area defined by the compound dose range and 0 to 100 in y). Emax was recorded as the minimum in y with the compound dose range. For those cell lines where Emax>40, EC50 was manually set to 10 μM. A hierarchical clustering algorithm based on Euclidean distance between the standardized input values and “Ward.D” method as implemented in R hclust function was used to visualize the compound 1 cellular potency data. The sensitive/moderate/resistant calls for each cell line was determined by visually inspecting the resulting clustering dendrogram. All the analyses were done in R Core Team.

[1] = Detroit 562, DETROIT562 cell line
[2] = Granta-519, GRANTA519 cell line
[3] = KARPAS-422, KARPAS422 cell line

CC(C)c1ccc(N(C)c2ccc3c(c2)OCC[C@H]3CNc2cnccc2C(=O)O)cc1 [Compound 1, 3-({[(4R)-7-{methyl[4-(propan-2-yl)phenyl]amino}-3,4-dihydro-2H-1-benzopyran-4-yl]methyl}amino)pyridine-4-carboxylic acid]
IC50 (Calu-6, CALU6 cell line): 0.0149 µM | EC50 (Caov-3, CAOV3 cell line): 0.00525 µM | IC50 (Caov-3, CAOV3 cell line): 0.00647 µM | IC50 (Capan-2, 168 h, CAPAN2, pancreas, ductal carcinoma, 168 hours): > 10 µM | EC50 (DLD-1, DLD1 cell line): 0.00147 µM | IC50 (DLD-1, DLD1 cell line): 0.00253 µM | IC50 (DMS-53, 168 h, DMS53, lung, small cell carcinoma, 168 hours): > 10 µM | EC50 (DMS-79, DMS79 cell line): 0.00128 µM | IC50 (DMS-79, DMS79 cell line): 0.00347 µM | IC50 (DMS-153, DMS153 cell line): > 10 µM | EC50 (DMS-273, DMS273 cell line): 0.0163 µM | IC50 (DMS-273, DMS273 cell line): 0.0222 µM | EC50 (DU-145, DU145 cell line): 0.0166 µM | IC50 (DU-145, DU145 cell line): 0.0177 µM | EC50 (DV-90, DV90 cell line): 0.00536 µM | IC50 (DV-90, DV90 cell line): 0.00736 µM | IC50 (Daoy, 168 h, central nervous system, NS): > 10 µM | EC50 (Daudi, DAUDI cell line): 0.0134 µM | IC50 (Daudi, DAUDI cell line): 0.0149 µM | EC50 [1]: 0.0104 µM | IC50 [1]: 0.0167 µM | EC50 (FTC-133, FTC133 cell line): 0.00428 µM | IC50 (FTC-133, FTC133 cell line): 0.00749 µM | IC50 (G-361, 168 h, G361, skin, NS, 168 hours): > 10 µM | EC50 (G-401, G401 cell line): 0.00439 µM | IC50 (G-401, G401 cell line): 0.00445 µM | EC50 (GI-1, GI1 cell line): 0.295 µM | IC50 (GI-1, GI1 cell line): 0.287 µM | EC50 [2]: 0.0149 µM | IC50 [2]: 0.0176 µM | IC50 (HCC38, 168 h, HCC38, breast, ductal carcinoma, 168 hours): > 10 µM | EC50 (HCC70, HCC70 cell line): 0.00856 µM | IC50 (HCC70, HCC70 cell line): 0.011 µM | EC50 (HCC78, HCC78 cell line): 0.0127 µM | IC50 (HCC78, HCC78 cell line): 0.0239 µM | EC50 (HCC95, HCC95 cell line): 0.00334 µM | IC50 (HCC95, HCC95 cell line): 0.0044 µM | IC50 (HCC827, 168 h, HCC827, lung, adenocarcinoma, 168 hours): > 10 µM | IC50 (HCC1143, HCC1143 cell line): > 10 µM | EC50 (HCC1187, HCC1187 cell line): 0.0031 µM | IC50 (HCC1187, HCC1187 cell line): 0.00651 µM | IC50 (HCC1419, 168 h, HCC1419, breast, ductal carcinoma, 168 hours): > 10 µM | IC50 (HCC1428, 168 h, HCC1428, breast, NS, 168 hours): > 10 µM | EC50 (HCC1599, HCC1599 cell line): 0.00382 µM | IC50 (HCC1599, HCC1599 cell line): 0.00564 µM | EC50 (HCC1806, HCC1806 cell line): 0.00513 µM | IC50 (HCC1806, HCC1806 cell line): 0.013 µM | IC50 (HCC1937, 168 h, HCC1937, breast, ductal carcinoma, 168 hours): > 10 µM | IC50 (HCC1954, HCC1954 cell line): 0.0406 µM | IC50 (HCC2935, HCC2935 cell line): > 10 µM | EC50 (HCT-15, HCT15 cell line): 0.00147 µM | IC50 (HCT-15, HCT15 cell line): 0.00179 µM | EC50 (HCT-116, HCT116 cell line): 0.00499 µM | IC50 (HCT-116, HCT116 cell line): 0.0204 µM | EC50 (HEL, HEL cell line): 0.0036 µM | IC50 (HEL, HEL cell line): 0.0117 µM | EC50 (HL-60, HL60 cell line): 0.00812 µM | IC50 (HL-60, HL60 cell line): 0.00932 µM | EC50 (HLE, HLE cell line): 0.0104 µM | IC50 (HLE, HLE cell line): 0.0113 µM | EC50 (HMCB, HMCB cell line): 0.000815 µM | IC50 (HMCB, HMCB cell line): 0.0111 µM | EC50 (HPAC, HPAC cell line): 0.00238 µM | IC50 (HPAC, HPAC cell line): 0.00393 µM | EC50 (HSC-2, HSC2 cell line): 0.00509 µM | IC50 (HSC-2, HSC2 cell line): 0.00799 µM | IC50 (HSC-3, HSC3 cell line): 0.0603 µM | EC50 (HSC-4, HSC4 cell line): 0.00433 µM | IC50 (HSC-4, HSC4 cell line): 0.00695 µM | EC50 (HT55, HT55 cell line): 0.0127 µM | IC50 (HT55, HT55 cell line): 0.0142 µM | EC50 (HT-29, HT29 cell line): 0.0228 µM | IC50 (HT-29, HT29 cell line): 0.037 µM | IC50 (HT-144, 168 h, HT144, skin, NS, 168 hours): > 10 µM | EC50 (HT-1080, HT1080 cell line): 0.0128 µM | IC50 (HT-1080, HT1080 cell line): 0.0141 µM | EC50 (HT-1376, HT1376 cell line): 0.0179 µM | IC50 (HT-1376, HT1376 cell line): 0.0363 µM | EC50 (HepG2, HEPG2 cell line): ≥ 10 µM | IC50 (HepG2, HEPG2 cell line): 0.0521 µM | EC50 (Hs 294T, HS294T cell line): 0.0307 µM | IC50 (Hs 294T, HS294T cell line): 0.0668 µM | IC50 (Hs 695T, 168 h, HS695T, skin, NS): > 10 µM | EC50 (Hs-578T, HS578T cell line): 0.0069 µM | IC50 (Hs-578T, HS578T cell line): 0.0139 µM | EC50 (HuH-1, HUH1 cell line): 0.0106 µM | IC50 (HuH-1, HUH1 cell line): 0.0118 µM | EC50 (HuTu80, HUTU80 cell line): 0.00421 µM | IC50 (HuTu80, HUTU80 cell line): 0.00436 µM | EC50 (Huh-7, HUH7 cell line): 0.0129 µM | IC50 (Huh-7, HUH7 cell line): 0.014 µM | IC50 (J82, J82 cell line): > 10 µM | EC50 (JIMT-1, JIMT1 cell line): 0.0466 µM | IC50 (JIMT-1, JIMT1 cell line): 0.0619 µM | EC50 (JeKo-1, JEKO1 cell line): 0.00231 µM | IC50 (JeKo-1, JEKO1 cell line): 0.0018 µM | EC50 (Jurkat, JURKAT cell line): 0.00166 µM | IC50 (Jurkat, JURKAT cell line): 0.00149 µM | EC50 (K562, K562 cell line): 0.00408 µM | IC50 (K562, K562 cell line): 0.00456 µM | IC50 (KALS-1, KALS1 cell line): > 10 µM | EC50 [3]: 0.00543 µM | IC50 [3]: 0.00653 µM | EC50 (KATO III, KATOIII cell line): 0.0404 µM | IC50 (KATO III, KATOIII cell line): 0.0438 µM | EC50 (KM12, KM12 cell line): 0.0063 µM | IC50 (KM12, KM12 cell line): 0.00734 µM | EC50 (KMS-11, KMS11 cell line): 0.0109 µM | IC50 (KMS-11, KMS11 cell line): 0.0122 µM | EC50 (KNS-62, KNS62 cell line): 0.0124 µM | IC50 (KNS-62, KNS62 cell line): 0.0149 µM | EC50 (KU-19-19, KU1919 cell line): 0.00877 µM | IC50 (KU-19-19, KU1919 cell line): 0.0103 µM
